Converted amounts (≈) assume the structure as drawn. Where two headings read alike, the source gives them in different places.
Tests used:
[1] = tested on: Streptococcus epidermidis ATCC12228; assay: MIC, doubling dilution method (NCCLS), Muller-Hinton agar; assay type: cell-based; details: 20 hours at 37°C
Method: (§1) Antibiotic activities of the crystalline compound obtained in Example 1 were evaluated by way of determining the minimum inhibitory concentration(MIC) for the microorganisms listed in Table 2 in vitro.
(§2) The […] was determined in accordance with the doubling dilution method(NCCLS). After the test compound was dispersed in a Muller-Hinton agar medium, the medium was inoculated with 2µl of a test strain having 10⁷ CFU/ml and, then, incubated for 20 hours at 37°C.
(§3) For comparison, antibiotic abilities of the amorphous formula(I) cephalosporin obtained in Preparation Example were also determined as above; and are shown in Table 2.

[2] = tested on: Micrococcus luteus ATCC9341; assay: as above; assay type: cell-based; details: 20 hours at 37°C
Method: as §1, §2, §3

[3] = tested on: Bacillus cereus ATCC11778; assay: as above; assay type: cell-based; details: 20 hours at 37°C
Method: as §1, §2, §3

[4] = tested on: Staphylococcus aureus ATCC6538p; assay: as above; assay type: cell-based; details: 20 hours at 37°C
Method: as §1, §2, §3

[5] = tested on: Enterobacter aerogenes ATCC29751; assay: as above; assay type: cell-based; details: 20 hours at 37°C
Method: as §1, §2, §3

[6] = tested on: Serratia marcescens ATCC27117; assay: as above; assay type: cell-based; details: 20 hours at 37°C
Method: as §1, §2, §3

[7] = tested on: Providencia rettgeri ATCC9250; assay: as above; assay type: cell-based; details: 20 hours at 37°C
Method: as §1, §2, §3

[8] = tested on: Klebsiella pneumoniae ATCC10031; assay: as above; assay type: cell-based; details: 20 hours at 37°C
Method: as §1, §2, §3

[9] = tested on: Shigella flexneri ATCC11836; assay: as above; assay type: cell-based; details: 20 hours at 37°C
Method: as §1, §2, §3

[10] = tested on: Escherichia coli ATCC10536; assay: as above; assay type: cell-based; details: 20 hours at 37°C
Method: as §1, §2, §3

[11] = tested on: Acinetobacter calcoaceticus ATCC15473; assay: as above; assay type: cell-based; details: 20 hours at 37°C
Method: as §1, §2, §3

[12] = tested on: Enterobacter cloacae ATCC27508; assay: as above; assay type: cell-based; details: 20 hours at 37°C
Method: as §1, §2, §3

[13] = tested on: Pseudomonas aeruginosa ATCC25619; assay: as above; assay type: cell-based; details: 20 hours at 37°C
Method: as §1, §2, §3

[14] = tested on: Citrobacter freundii ATCC8090; assay: as above; assay type: cell-based; details: 20 hours at 37°C
Method: as §1, §2, §3

[15] = tested on: Morganella morganii ATCC8076h; assay: as above; assay type: cell-based; details: 20 hours at 37°C
Method: as §1, §2, §3

[16] = tested on: Streptococcus faecalis ATCC29212; assay: as above; assay type: cell-based; details: 20 hours at 37°C
Method: as §1, §2, §3

[17] = tested on: Pseudomonas aeruginosa ATCC27853; assay: as above; assay type: cell-based; details: 20 hours at 37°C
Method: as §1, §2, §3

[18] = tested on: Staphylococcus aureus ATCC10537; assay: as above; assay type: cell-based; details: 20 hours at 37°C
Method: as §1, §2, §3

[19] = tested on: Salmonella typhimurium ATCC14028; assay: as above; assay type: cell-based; details: 20 hours at 37°C
Method: as §1, §2, §3

[20] = tested on: Escherichia coli ATCC25922; assay: as above; assay type: cell-based; details: 20 hours at 37°C
Method: as §1, §2, §3

[21] = tested on: Pseudomonas aeruginosa ATCC10145; assay: as above; assay type: cell-based; details: 20 hours at 37°C
Method: as §1, §2, §3

[22] = tested on: Bacillus megaterium ATTCC9885; assay: as above; assay type: cell-based; details: Priestia megaterium, 20 hours at 37°C
Method: as §1, §2, §3

[23] = tested on: Proteus vulgaris ATCC6059; assay: as above; assay type: cell-based; details: 20 hours at 37°C
Method: as §1, §2, §3

[24] = tested on: Proteus mirabilis ATCC25933; assay: as above; assay type: cell-based; details: 20 hours at 37°C
Method: as §1, §2, §3

[25] = tested on: Shigella sonnei ATCC11060; assay: as above; assay type: cell-based; details: 20 hours at 37°C
Method: as §1, §2, §3

[26] = Heat-stability test: storage at 50°C, decomposition by liquid chromatography; assay type: physicochemical
Method: The crystalline hydrate of the compound obtained in Example 1 and the amorphous cephalosporin obtained in Preparation Example were stored at 50°C. After the respective periods of one week and two weeks, the heat stability of the compounds was measured by determining their level of decomposition through the use of liquid chromatography.

| SMILES | MIC [5] | MIC [6] | MIC [8] | MIC [10] | MIC [11] | MIC [13] | MIC [14] | MIC [17] | MIC [19] | MIC [20] | MIC [23] | MIC [25] | Decomposition Rate ([26]; storage period (50°C): 0) | Decomposition Rate ([26]; storage period (50°C): 1 week) | Decomposition Rate ([26]; storage period (50°C): 2 week) | further results |
| --- | --- | --- | --- | --- | --- | --- | --- | --- | --- | --- | --- | --- | --- | --- | --- | --- |
| Cc1c(N)nc(SCC2=C(C(=O)[O-])N3C(=O)C(NC(=O)/C(=N\OC(C)(C)C(=O)O)c4csc(N)n4)[C@H]3SC2)[n+](N)c1N (stereo partly shown) [Test Compound, 7-[(Z)-2-(2-aminothiazole-4-yl)-2-(2-carboxyprop-2-oxyimino)acetamido]-3-(5-methyl-1,4,6-triaminopyrimidinium-2-yl)thiomethyl-3-cephem-4-carboxylate] | 0.25 µg/mL (≈ 0.391 µM) | 0.063 µg/mL (≈ 0.0986 µM) | 0.016 µg/mL (≈ 0.0251 µM) | 0.031 µg/mL (≈ 0.0485 µM) | 1 µg/mL (≈ 1.57 µM) | 0.5 µg/mL (≈ 0.783 µM) | 0.016 µg/mL (≈ 0.0251 µM) | 0.5 µg/mL (≈ 0.783 µM) | 0.063 µg/mL (≈ 0.0986 µM) | 0.031 µg/mL (≈ 0.0485 µM) | 0.031 µg/mL (≈ 0.0485 µM) | 0.031 µg/mL (≈ 0.0485 µM) | 0% | 0.4% | 0.9% | MIC ([1]; Streptococcus, ATCC12228, 20 h, read-out: MIC): 1 µg/mL (≈ 1.57 µM); MIC ([2]; Micrococcus luteus, ATCC9341, 20 h, read-out: MIC): 0.25 µg/mL (≈ 0.391 µM); MIC ([3]; Bacillus cereus, ATCC11778, 20 h, read-out: MIC): 64 µg/mL (≈ 100 µM); MIC ([4]; read-out: MIC): 4 µg/mL (≈ 6.26 µM); MIC ([7]; read-out: MIC): ≤ 0.008 µg/mL; MIC ([9]; Shigella flexneri, ATCC11836, 20 h, read-out: MIC): 0.016 µg/mL (≈ 0.0251 µM); MIC ([12]; Enterobacter cloacae, ATCC27508, 20 h, read-out: MIC): ≤ 0.008 µg/mL; MIC ([15]; read-out: MIC): ≤ 0.008 µg/mL; MIC ([16]; Enterococcus faecalis, read-out: MIC): > 128 µg/mL; MIC ([18]; read-out: MIC): 2 µg/mL (≈ 3.13 µM); MIC ([21]; Pseudomonas aeruginosa, ATCC10145, 20 h, read-out: MIC): 1 µg/mL (≈ 1.57 µM); MIC [22]: 0.13 µg/mL (≈ 0.204 µM); MIC ([24]; Proteus mirabilis, ATCC25933, 20 h, read-out: MIC): 0.016 µg/mL (≈ 0.0251 µM) |
| Cc1c(N)nc(SCC2=C(C(=O)[O-])N3C(=O)C(NC(=O)/C(=N\OC(C)(C)C(=O)O)c4csc(N)n4)[C@H]3SC2)[n+](N)c1N (stereo partly shown) [Amorphous Compound, 7-[(Z)-2-(2aminothiazole-4-yl)-2-(2-carboxyprop-2-oxyimino)acetamido]-3-(5-methyl-1,4,6-triamino-pyrimidinium-2-yl)thiomethyl-3-cephem-4-carboxylate, reference compound] | 1 µg/mL (≈ 1.57 µM) | 0.13 µg/mL (≈ 0.204 µM) | 0.063 µg/mL (≈ 0.0986 µM) | 0.063 µg/mL (≈ 0.0986 µM) | 4 µg/mL (≈ 6.26 µM) | 2 µg/mL (≈ 3.13 µM) | 0.063 µg/mL (≈ 0.0986 µM) | 2 µg/mL (≈ 3.13 µM) | 0.13 µg/mL (≈ 0.204 µM) | 0.13 µg/mL (≈ 0.204 µM) | 0.063 µg/mL (≈ 0.0986 µM) | 0.063 µg/mL (≈ 0.0986 µM) | 0% | 4.2% | 5.2% | MIC [1]: 2 µg/mL (≈ 3.13 µM); MIC [2]: 0.5 µg/mL (≈ 0.783 µM); MIC [3]: 128 µg/mL (≈ 200 µM); MIC [4]: 4 µg/mL (≈ 6.26 µM); MIC [7]: <=0.008 mcg/ml; MIC [9]: 0.031 µg/mL (≈ 0.0485 µM); MIC [12]: 0.016 µg/mL (≈ 0.0251 µM); MIC [15]: <=0.008 mcg/ml; MIC [16]: >128 µg/mL; MIC [18]: 2 µg/mL (≈ 3.13 µM); MIC [21]: 2 µg/mL (≈ 3.13 µM); MIC [24]: 0.031 µg/mL (≈ 0.0485 µM) |

— patent publication EP0638573A1, “Crystalline hydrates of cephalosporin and process for preparation thereof” (LUCKY LTD., priority 1993, dated 1995)
